Experimental data: patent publication US10500167B2, “Droplet-embedded microfibers, and methods and devices for preparing and using same” (TRUSTEES OF PRINCETON UNIVERSITY, priority 2014, dated 2019)

Assays:
[1] = retention and selective release of cargo from alginate-in-oil-in-alginate fibers; assay type: physicochemical
Source text: The concentration of alginate-PVA solution in the inner alginate compartment was kept the same as the alginate fiber. As for the cargos, 0.5% (v/v) 200 nm orange fluorescent particles (FluoSpheres, Invitrogen), 1% (w/v) FITC conjugated BSA, or 0.04% (v/v) of 190 nm Dragon Green fluorescent particles (Uniform Dyed Microspheres, Bangs Laboratories, Inc.) were mixed with the alginate solution. For water-based magnetic particles, 2% (v/v) of 1 μm-magnetic polystyrene particles were mixed in the alginate solution. Chemicals not indicated with vendors were purchased from Sigma-Aldrich.
Multicompartment fibers were collected as suspensions in DI water or wound between two rotating needles controlled by a motor (Barnant Motor Mixer, Model No. 700-5412). […] For selective dissolution of the cargos from the oil compartment of the fibers, ethanol (Reagent alcohol, BDH) was added to the fiber suspensions. The de-cross-linking agent, 160 mM sodium citrate (Na3C6H5O7, Sigma-Aldrich) in DI water was used as calcium chelator to degrade the alginate fiber or inner alginate particles.
As a model particle cargo, 200 nm fluorescent nanoparticles were added to the inner alginate particle to produce fluorescent core microfibers (FIG. 2, panel a, and FIG. 8, panel a).
As a non-limiting example, ethanol was used to affect oil phase removal. The oil phase, which was a solution of mineral oil, 5% (v/v) undecanol, and 2 wt % Span 80 surfactant, was slightly miscible with ethanol, and thus was able to slowly escape the oil microcompartments in the fiber in the presence of ethanol. Alginate-in-oil-in-alginate fibers were prepared with 0.3 mg·mL^−1 of a lipophilic fluorescent dye, Nile Red, in the oil droplets, and green fluorescent nanoparticles of 190 nm diameter in the inner alginate particles; one fiber sample was immersed in water, and the second fiber sample was immersed in an ethanol/water solution.

[2] = retention and release of dissolved compounds from hydrophobic PEG-DA droplet-in-fibers; assay type: physicochemical
Source text: FIG. 18 illustrates hydrophobic droplet-in-fibers wrapped around needles immersed in water. On the left, the fiber precursor solution contained 76 vol % PEG250DA, 20 vol % PEG700DA and 4 vol % photoinitiator. On the right, the fiber precursor solution contained 96 vol % PEG250DA and 4 vol % photoinitiator. Both fibers contained aqueous droplets with 1 wt % erioglaucine (blue dye).

[3] = test system: Escherichia coli (E. Coli, S17-1λpir); experiment: antibacterial effect of eugenol oil droplets on E. coli cells encapsulated in alginate fibers; assay type: cell-based
Source text: For the alginate fiber, 0.5-1 wt % sodium alginate (from brown algae) with 0.1-0.25 wt % poly(vinyl alcohol) (PVA; Molecular weight, 31,000-50,000) dissolved in DI water or PBS was used. PVA is a biocompatible polymer. Also, after collecting the fibers, they were rinsed with DI water or PBS, and stored in DI water to allow any water-soluble components in the fiber to be removed. […] For cell encapsulation, the alginate-PVA solution was filtered through 0.22 μm pore-sized filter prior to mixing with cells. The mammalian cells, NIH/3T3 mouse fibroblast cells (ATCC), were cultured in Dulbecco's modified Eagle medium (DMEM; ATCC) supplemented with 10% (v/v) calf bovine serum and 1% (v/v) penicillin. The cells were prepared to be 1-2×10^5 cells·mL^−1 in the final alginate solution. For encapsulating mammalian cells in the alginate fiber, a solution of 0.5 wt % alginate with 0.1 wt % PVA dissolved in PBS was used. The bacterial cells were Escherichia coli (E. Coli, S17-1λpir) that express green fluorescent protein (GFP) from a plasmid, induced by isopropyl β-D-1-thiogalactopyranoside (IPTG). More details on the cells, including plasmid construction, is recited in Drescher, et al., 2014, Curr. Biol. 24:50. The E. coli cells were prepared in the alginate solution to be 4-5×10^6 cells·mL^−1. For encapsulating bacterial cells, a solution of 1 wt % alginate with 0.25 wt % PVA dissolved in PBS was used.
(§1) For the oil droplet compartment, mineral oil with 2 wt % Span 80 was used in general. For solidifying inner alginate droplets to prevent them from escaping the oil compartment, 5% (v/v) of calcium chloride-saturated undecanol was mixed with the oil solution. The concentrations of the cargos to be carried in the oil compartment were 0.3 mg·mL^−1 for Nile red, 0.8% (v/v) for magnetic particles in oil-phase (EMG 909, FerroTec), and 10 and 20% (v/v) for eugenol. […] The final concentration of undecanol in the oil solution was 5% (v/v). In the case of using just eugenol for the oil compartment, 2 wt % Span 80 was added to eugenol to form stable droplets.
Multicompartment fibers were collected as suspensions in DI water or wound between two rotating needles controlled by a motor (Barnant Motor Mixer, Model No. 700-5412). Fibers encapsulating the fibroblast cells were collected in DMEM supplemented with 10% calf bovine serum and 1% penicillin, and stored in the 5% CO2-humidified incubator at 37° C. To test the cell viability inside the multicompartment fibers, 2 μM of calcein AM and 4 μM of ethidium-homodimer-1 (EthD-1) from LIVE/DEAD Viability/Cytotoxicity kit for mammalian cells (Molecular Probes) were applied in the DMEM 1 hour prior to the observation under a fluorescent microscope. The cell viability was analyzed with the green (calcein AM) and red (EthD-1) fluorescence images using image analysis software, ImageJ (NIH). E. coli-encapsulated fibers were either collected in LB media containing 1 mM IPTG and 100 μg·mL^−1 Kanamycin (kanamycin sulfate; Fisher). For selective dissolution of the cargos from the oil compartment of the fibers, ethanol (Reagent alcohol, BDH) was added to the fiber suspensions. The de-cross-linking agent, 160 mM sodium citrate (Na3C6H5O7, Sigma-Aldrich) in DI water was used as calcium chelator to degrade the alginate fiber or inner alginate particles.
The growth of bacterial cells, Escherichia coli (E. coli), in the oil droplet-in-alginate fibers (FIG. 2, panel d) was also tested. The E. coli cells encapsulated in the fibers were suspended in the LB medium for 21 hours, and grew well inside the fibers where they completely surrounded the oil droplets (FIG. 9). The oil microcompartments of the fiber can be used to encapsulate hydrophobic drugs or antibacterial chemicals to test their effects on the cells. For example, eugenol is an antibacterial compound found in clove oil. Eugenol was dissolved in the oil compartment, in a solution comprising mineral oil with 5% (v/v) undecanol and 2 wt % Span 80. […]

[4] = dissolution of eugenol droplets embedded in the fiber in water; assay type: physicochemical; settings: 100% eugenol droplets
Protocol: as §1
The previously described experiments were conducted with mineral oil as the oil phase.

CCN(CC)c1ccc2nc3c4ccccc4c(=O)cc-3oc2c1 [Nile Red]
red fluorescence in the fibers ([1]; ethanol/water solution, after a longer time): no further red fluorescence was observed in the fibers
red fluorescence in the oil microcompartments ([1]; fiber immersed over 18 hours in water): red fluorescence of the Nile Red dye in the oil microcompartments was observed

CCN(Cc1cccc(S(=O)(=O)[O-])c1)c1ccc(C(=C2C=CC(=[N+](CC)Cc3cccc(S(=O)(=O)[O-])c3)C=C2)c2ccccc2S(=O)(=O)[O-])cc1.[Na+].[Na+] [erioglaucine]
retention of dissolved compound in aqueous droplets ([2]; PEG-DA (MW=250 g/mol) fiber with 4 vol % photoinitiator): remained within the aqueous compartments
release of dye from fiber ([2]; fiber precursor 76 vol % PEG250DA, 20 vol % PEG700DA, 4 vol % photoinitiator, immersed in water): allowed the blue dye to diffuse out of the fiber

C=CCc1ccc(O)c(OC)c1 [eugenol]
growth of E. coli around the oil droplets ([3]; 20% (v/v) eugenol droplets, after 3 hours): slowed down around the oil droplets
growth of E. coli around the rim of the droplets ([3]; 20% (v/v) eugenol droplets, after 15 hours): no growth was observed around the rim of the droplets
cell population around the oil droplets ([3]; 20% (v/v) eugenol-oil droplets): significant decrease in the cell population around the oil droplets
cell growth around the eugenol droplets compared with oil droplets with no eugenol ([3]; eugenol up to 10% (v/v) in oil droplets): no significant difference in the cell growth
overall growth rate of E. coli inside the fiber ([3]; eugenol up to 10% (v/v) in oil droplets, qualitative): reduction in the overall growth rate of E. coli
growth of GFP-expressing E. coli in fiber ([3]; up to 10% (v/v) eugenol droplets, after 15 hours): grew around the oil droplets and covered most of the fibers completely
diameter of eugenol droplets embedded in the fiber after dissolution ([4]; over a period of 2 hours): 50 μm
diameter of eugenol droplets embedded in the fiber, initial ([4]; start): 120 μm

fluorescein isothiocyanate (FITC) conjugated bovine serum albumin [FITC-conjugated BSA]
time over which fluorescence of encapsulated cargo was observed ([1]; in inner alginate particle, fiber stored in DI water): at least 20 hours
